Type in all cases: biochemical
One experiment concerns the target T1, Human MMP3 (Homo sapiens, UniProt P08254).
T1 construct: purchased Calbiochem 444217
The experiment is described as follows: MMP3 inhibition experiment. The following applies: concentration required for 50% inhibition of enzyme activity; read-out: IC50 value MMP-3. How it is done: (§1) MMP inhibition experiment may be carried out using a fluorescent synthetic substrate according to, for example, the methods of Bickett et al. (D. Mark Bickett et al., Anal. Biochem., 1993, 212, 58-64) and Nagase et al. (H. Nagase et al., J. Biol. Chem., 1994, 269, 20952-20957). The methods of inhibition experiments carried out for various MMPs are described below.
Human MMP3 (Calbiochem #444217) in 90 μL (5 ng) prepared in the assay buffer A was added to 90 μL of 20 μM fluorescent substrate NFF-3(MOCAc-Arg-Pro-Lys-Pro-Val-Glu-Nva-Trp-Arg-Lys(Dnp)-NH2, Peptide Institute, Inc., #3168-v) prepared in the assay buffer B, followed by reaction for 5 hours at 37° C.

The target in a further experiment is T2, Human MMP14 (Homo sapiens, UniProt P50281).
T2 construct: purchased Biogenesis or Calbiochem 5980-1461 or 475935
The experiment is described as follows: MMP14 inhibition experiment. The following applies: concentration required for 50% inhibition of enzyme activity; read-out: IC50 value MMP-14. The protocol: as §1
Human MMP14 (Biogenesis #5980-1461 or Calbiochem #475935) in amount of 90 μL (4 ng) prepared in the assay buffer A was added to 90 μL of 20 μM fluorescent substrate (Dnp-Pro-Cha-Gly-Cys(Me)-His-Ala-Lys(Nma)-NH2) prepared in the assay buffer B, followed by reaction for 5 hours at 37° C.

Another experiment concerns the target T3, Human MMP2 (Homo sapiens, UniProt P08253).
T3 construct: purchased Calbiochem 444213
T3 sequence (P08253 110-660): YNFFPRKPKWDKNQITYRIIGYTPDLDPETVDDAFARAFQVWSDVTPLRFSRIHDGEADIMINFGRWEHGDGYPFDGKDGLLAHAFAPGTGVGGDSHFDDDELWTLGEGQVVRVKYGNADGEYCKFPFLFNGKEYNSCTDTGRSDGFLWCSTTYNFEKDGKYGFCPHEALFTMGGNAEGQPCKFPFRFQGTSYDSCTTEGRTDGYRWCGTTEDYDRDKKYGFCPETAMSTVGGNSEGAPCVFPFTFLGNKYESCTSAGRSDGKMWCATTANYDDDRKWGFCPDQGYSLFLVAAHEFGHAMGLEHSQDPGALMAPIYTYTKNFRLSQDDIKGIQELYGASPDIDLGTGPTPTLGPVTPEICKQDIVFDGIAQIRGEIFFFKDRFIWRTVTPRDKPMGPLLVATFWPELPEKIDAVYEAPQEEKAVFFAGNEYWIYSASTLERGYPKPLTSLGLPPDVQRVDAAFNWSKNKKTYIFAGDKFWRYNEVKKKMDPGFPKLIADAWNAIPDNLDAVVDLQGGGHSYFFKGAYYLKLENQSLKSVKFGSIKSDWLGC
The experiment is described as follows: MMP2 inhibition experiment. Conditions: concentration required for 50% inhibition of enzyme activity; read-out: IC50 value MMP-2.

The target in a further experiment is T4, Human MMP9 (Homo sapiens, UniProt P14780).
T4 construct: purchased Calbiochem 444231
T4 sequence (P14780 107-707 limits assumed): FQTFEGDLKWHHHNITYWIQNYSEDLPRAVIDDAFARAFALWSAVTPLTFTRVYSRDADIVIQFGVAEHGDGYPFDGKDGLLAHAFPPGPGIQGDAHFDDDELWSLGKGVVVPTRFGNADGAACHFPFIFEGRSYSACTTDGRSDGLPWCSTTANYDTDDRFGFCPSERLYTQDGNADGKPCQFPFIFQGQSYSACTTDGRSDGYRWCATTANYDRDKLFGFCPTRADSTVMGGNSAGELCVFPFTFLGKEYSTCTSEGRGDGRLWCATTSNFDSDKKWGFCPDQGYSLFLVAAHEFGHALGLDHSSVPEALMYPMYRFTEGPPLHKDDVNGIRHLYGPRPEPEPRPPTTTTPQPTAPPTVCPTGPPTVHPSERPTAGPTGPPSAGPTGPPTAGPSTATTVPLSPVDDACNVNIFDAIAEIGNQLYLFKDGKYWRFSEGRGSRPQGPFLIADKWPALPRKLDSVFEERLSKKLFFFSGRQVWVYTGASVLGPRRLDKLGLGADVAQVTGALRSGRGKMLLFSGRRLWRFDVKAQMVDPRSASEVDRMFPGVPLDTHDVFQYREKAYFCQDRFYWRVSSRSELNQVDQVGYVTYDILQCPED
The experiment is described as follows: MMP9 inhibition experiment. Conditions: read-out: IC50 value MMP-9.

The next experiment deals with T5, Human MMP1 (Homo sapiens, UniProt P03956).
T5 construct: purchased Calbiochem 444208
T5 sequence (P03956 100-469): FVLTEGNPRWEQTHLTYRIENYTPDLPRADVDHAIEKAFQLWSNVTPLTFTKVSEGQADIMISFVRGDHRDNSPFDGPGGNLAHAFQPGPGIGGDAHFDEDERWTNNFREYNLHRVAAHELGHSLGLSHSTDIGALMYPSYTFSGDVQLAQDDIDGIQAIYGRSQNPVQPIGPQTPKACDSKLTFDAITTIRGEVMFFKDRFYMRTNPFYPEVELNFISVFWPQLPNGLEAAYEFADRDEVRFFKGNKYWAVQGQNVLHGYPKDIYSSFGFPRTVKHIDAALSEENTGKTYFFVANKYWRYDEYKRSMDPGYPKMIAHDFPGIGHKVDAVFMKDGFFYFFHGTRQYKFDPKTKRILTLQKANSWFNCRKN
The experiment is described as follows: MMP1 inhibition experiment. Conditions: read-out: IC50 value MMP-1.

The target in the next experiment is T6, Human MMP17 (Homo sapiens, UniProt Q9ULZ9).
T6 construct: purchased Calbiochem 475940
T6 sequence (Q9ULZ9 126-300 limits assumed): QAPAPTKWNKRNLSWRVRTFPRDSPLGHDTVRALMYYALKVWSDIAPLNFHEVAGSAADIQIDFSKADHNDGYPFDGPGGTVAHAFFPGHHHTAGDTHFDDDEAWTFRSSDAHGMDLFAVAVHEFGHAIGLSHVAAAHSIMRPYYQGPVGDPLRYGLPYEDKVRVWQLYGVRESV
The experiment is described as follows: MMP17 inhibition test. The following applies: concentration required for 50% inhibition of enzyme activity; read-out: IC50 value MMP-17.

The next experiment has as its target T7, Human MMP13 (Homo sapiens, UniProt P45452).
T7 construct: purchased Chemicon CC068
The experiment is described as follows: MMP13 inhibition experiment. Conditions: concentration required for 50% inhibition of enzyme activity; read-out: IC50 value MMP-13.

The next experiment has as its target T8, TACE (Homo sapiens, UniProt P78536).
T8 construct: made in house; host or cells: mammalian cells or insect cells
The experiment is described as follows: TACE inhibition experiment (in vitro).

Setting [1] is: concentration required for 50% inhibition of enzyme activity.

This passage reports IC50 results from patent publication US7511144B2, “Reverse hydroxamic acid derivatives” (Kaken Pharmaceutical Co., Ltd., priority 2001, dated 2009).

Each structure is given as a SMILES string. Where two headings read alike, the source gives them in different places.

T8 sequence (P78536 215-824): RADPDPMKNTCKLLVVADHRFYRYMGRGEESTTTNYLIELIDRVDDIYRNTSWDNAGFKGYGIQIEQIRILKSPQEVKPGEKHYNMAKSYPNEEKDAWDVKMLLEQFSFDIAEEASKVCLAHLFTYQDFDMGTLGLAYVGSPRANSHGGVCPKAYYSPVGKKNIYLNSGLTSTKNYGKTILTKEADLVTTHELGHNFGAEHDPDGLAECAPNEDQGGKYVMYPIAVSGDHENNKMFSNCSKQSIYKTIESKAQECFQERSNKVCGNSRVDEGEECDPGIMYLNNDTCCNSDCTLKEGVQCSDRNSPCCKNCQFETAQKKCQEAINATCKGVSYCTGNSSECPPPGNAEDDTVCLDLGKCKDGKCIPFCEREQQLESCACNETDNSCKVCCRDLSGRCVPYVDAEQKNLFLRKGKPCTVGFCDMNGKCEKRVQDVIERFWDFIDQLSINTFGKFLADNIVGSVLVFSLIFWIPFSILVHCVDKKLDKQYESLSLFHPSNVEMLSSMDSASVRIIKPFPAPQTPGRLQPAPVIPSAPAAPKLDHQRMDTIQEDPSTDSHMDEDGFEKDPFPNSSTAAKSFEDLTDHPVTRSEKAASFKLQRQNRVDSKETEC
T1 sequence (P08254 100-272 limits assumed): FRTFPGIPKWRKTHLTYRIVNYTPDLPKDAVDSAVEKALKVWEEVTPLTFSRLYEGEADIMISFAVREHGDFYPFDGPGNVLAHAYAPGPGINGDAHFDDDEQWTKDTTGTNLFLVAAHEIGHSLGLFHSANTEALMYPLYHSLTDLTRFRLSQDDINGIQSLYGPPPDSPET
Experimental for Human MMP13: Human MMP13 (Chemicon #CC068) in amount of 90 μL (200 ng) was activated by mixing with 10 μL of 10 mM APMA, followed by reaction for 1 hour at 37° C. This enzyme solution in amount of 0.6 μL was diluted to 90 μL with the assay buffer A, which was added to 90 μL of 20 μM fluorescent substrate (Dnp-Pro-Cha-Gly-Cys(Me)-His-Ala-Lys(Nma)-NH2) prepared in the assay buffer B, followed by reaction for 4 hours at 37° C.
Experimental for Human MMP2: This enzyme solution in amount of 10 μL was diluted to 90 μL with the assay buffer A, which was added to 90 μL of 20 μM fluorescent substrate (MOCAc((7-methoxycoumarin-4-yl)acetyl)-Pro-Leu-Gly-Leu-A2pr(Dnp)-Ala-Arg-NH2, Peptide Institute, Inc., #3163-v) prepared in the assay buffer B, followed by reaction for 5 hours at 37° C.
Experimental for Human MMP9: This enzyme solution in amount of 1 μL was diluted to 90 μL with the assay buffer A, which was added to 90 μL of 20 μM fluorescent substrate (Dnp-Pro-Cha-Gly-Cys(Me)-His-Ala-Lys(Nma)-NH2) prepared in the assay buffer B, followed by reaction for 4 hours at 37° C.

Consider `Cc1cc(COc2ccc(S(=O)(=O)CC(C(Cl)=C3CCOCC3)N(O)C=O)cc2)c2ccccc2n1` (stereo not drawn) [Example I-19], for which the 50% inhibitory concentration (IC50) on Human MMP3 was 20 µM; at Human MMP14 it was > 100 µM; on Human MMP2, > 100 µM; at Human MMP9 it was > 100 µM; on Human MMP1, > 100 µM; at Human MMP17, 7 µM. In addition, the concentration for half-maximal inhibition (IC50) at Human MMP13 is 70 µM; against TACE, 0.0063 µM.

In the case of `Cc1cc(COc2ccc(S(=O)(=O)CC(C(F)=C3CCOCC3)N(O)C=O)cc2)c2ccccc2n1` (stereo not drawn) [Example I-16], the 50% inhibitory concentration (IC50) at Human MMP3 is 10 µM; on Human MMP14 it was > 100 µM; on Human MMP2 it was 40 µM; at Human MMP9 it was > 100 µM; at Human MMP1, > 100 µM; at Human MMP17, 5.5 µM. Moreover, the values for the half-inhibitory concentration (IC50) at Human MMP13 and against TACE were 40 µM and 0.007 µM, respectively.

Consider `Cc1cc(C)cc(COc2ccc(S(=O)(=O)CC(C=C3CCC(=O)CC3)N(O)C=O)cc2)c1` (stereo not drawn) [Example I-92], for which the IC50 on Human MMP3 is 60 µM; on Human MMP14, > 100 µM; at Human MMP2 it was 43 µM; on Human MMP9, 60 µM; at Human MMP1 it was > 100 µM; at Human MMP17, 40 µM. Also, the IC50 on Human MMP13 was determined as 35 µM; on TACE, 0.3 µM.

Turning to `Cc1cc(Cl)cc(COc2ccc(S(=O)(=O)CC(CC3CCC(=NO)CC3)N(O)C=O)cc2)c1` (stereo not drawn) [Example I-100], the IC50 at Human MMP3 came to 7 µM; on Human MMP14, 25 µM; on Human MMP2 it was 4 µM; at Human MMP9, 23 µM; on Human MMP1 it was 43 µM; at Human MMP17 it was 7 µM. Also, the concentration for half-maximal inhibition (IC50) on Human MMP13 was found to be 6 µM; at TACE it was 0.2 µM.

Regarding `Cc1ccc2nc(C)cc(COc3ccc(S(=O)(=O)CC(CC4CCC(=NO)CC4)N(O)C=O)cc3)c2c1` (stereo not drawn) [Example I-76], the 50% inhibitory concentration (IC50) was determined as 0.8 µM on Human MMP3; 31 µM on Human MMP14; 10 µM on Human MMP2; 40 µM on Human MMP9; 40 µM on Human MMP1; 1.6 µM at Human MMP17. The IC50 at Human MMP13 came to 6 µM; against TACE it was 0.005 µM.

`COc1cc(C)cc(COc2ccc(S(=O)(=O)CC(C=C3CCC(=O)CC3)N(O)C=O)cc2)c1` (stereo not drawn) [Example I-94]: the half-inhibitory concentration (IC50) at Human MMP3 is 21 µM; at Human MMP14, 40 µM; on Human MMP2 it was 23 µM; on Human MMP9, 40 µM; on Human MMP1, 90 µM; on Human MMP17, 22 µM. Moreover, the IC50 was determined as 20 µM at Human MMP13 and 0.08 µM against TACE.

`Cc1cc(COc2ccc(S(=O)(=O)CC(C=C3CCC(=NO)CC3)N(O)C=O)cc2)cc(C)n1` (stereo not drawn) [Example I-111]: the concentration for half-maximal inhibition (IC50) on Human MMP3 is 30 µM; at Human MMP14, > 100 µM; on Human MMP2, 4.1 µM; on Human MMP9, > 100 µM; on Human MMP1, > 100 µM; on Human MMP17 it was 30 µM. For the same compound, the 50% inhibitory concentration (IC50) at Human MMP13 came to 8 µM; at TACE it was 0.05 µM.

Take `Cc1cc(Cl)cc(COc2ccc(S(=O)(=O)CC(CC3CCC4(CC3)OCCO4)N(O)C=O)cc2)c1` (stereo not drawn) [Example I-99]: the concentration for half-maximal inhibition (IC50) is 6 µM at Human MMP3; 25 µM at Human MMP14; 5 µM on Human MMP2; 20 µM on Human MMP9; 40 µM at Human MMP1; 13 µM at Human MMP17. Also, the IC50 on Human MMP13 stood at 18 µM; against TACE, 1.1 µM.

`Cc1cc(Cl)cc(COc2ccc(S(=O)(=O)CC(C=C3CCC4(CC3)OCCO4)N(O)C=O)cc2)c1` (stereo not drawn) [Example I-103]: the IC50 on Human MMP3 stood at 30 µM; at Human MMP14 it was 33 µM; on Human MMP2 it was 38 µM; on Human MMP9, 38 µM; at Human MMP1, 60 µM; at Human MMP17 it was 40 µM. Further, the results for the IC50 at Human MMP13 and against TACE were 25 µM and 0.5 µM, respectively.

As for `Cc1cc(COc2ccc(S(=O)(=O)CC(CC3CCC4(CC3)OCCO4)N(O)C=O)cc2)c2ccccc2n1` (stereo not drawn) [Example I-10], the IC50 is 1.2 µM at Human MMP3; 23 µM at Human MMP14; 6 µM on Human MMP2; 12 µM at Human MMP9 (setting [1]); 45 µM at Human MMP1; 1.1 µM on Human MMP17. Further, the results for the half-maximal inhibitory concentration (IC50) at Human MMP13 and on TACE (setting [1]) were 5 µM and 0.06 µM, respectively.

As for `Cc1cc(COc2ccc(S(=O)(=O)CC(C=C3CCC(=O)CC3)N(O)C=O)cc2)cc(C)n1` (stereo not drawn) [Example I-114], the concentration for half-maximal inhibition (IC50) on Human MMP3 was 23 µM; at Human MMP14, > 100 µM; at Human MMP2, 7 µM; at Human MMP9 it was > 100 µM; on Human MMP1, > 100 µM; on Human MMP17, 30 µM. The values for the IC50 at Human MMP13 and on TACE were 10 µM and 0.1 µM, respectively.

For the compound `Cc1cc(C)cc(COc2ccc(S(=O)(=O)CC(C=C3CCC4(CC3)OCCO4)N(O)C=O)cc2)c1` (stereo not drawn) [Example I-91], the IC50 on Human MMP3 is 35 µM; at Human MMP14, 40 µM; at Human MMP2, 43 µM; at Human MMP9 it was 33 µM; on Human MMP1, > 100 µM; at Human MMP17, 40 µM. Besides, the 50% inhibitory concentration (IC50) at Human MMP13 worked out at 35 µM; on TACE, 0.4 µM.

With `CC(=O)N(O)C(C=C1CCSCC1)CS(=O)(=O)c1ccc(OCc2cc(C)nc3ccccc23)cc1` (stereo not drawn) [Example I-126, N-hydroxy-N-{2-[4-(2-methylquinolin-4-ylmethoxy)benzenesulfonyl]-1-(tetrahydrothipyran-4-ylidenemethyl)ethyl}acetamide], the half-inhibitory concentration (IC50) at Human MMP3 was 12 µM; on Human MMP14, > 100 µM; at Human MMP2 it was > 100 µM; on Human MMP9 it was > 100 µM; at Human MMP1, > 100 µM; at Human MMP17, 6.3 µM. Further, the IC50 at Human MMP13 was 70 µM; at TACE it was 0.31 µM.

Take `Cc1cc(Cl)cc(COc2ccc(S(=O)(=O)CC(C3CCC4(CC3)OCCO4)N(O)C=O)cc2)c1` (stereo not drawn) [Example I-98]: the IC50 on Human MMP3 turned out to be 1.2 µM; at Human MMP14 it was 7 µM; on Human MMP2, 2 µM; on Human MMP9, 20 µM; on Human MMP1, 50 µM; on Human MMP17 it was 1.6 µM. Also, the IC50 was 2 µM on Human MMP13 and 0.08 µM against TACE.

Regarding `Cc1cc(COc2ccc(S(=O)(=O)CC(CC3CCC(=NO)CC3)N(O)C=O)cc2)cc(C)n1` (stereo not drawn) [Example I-112], the IC50 was 4 µM at Human MMP3; 60 µM on Human MMP14; 1.3 µM at Human MMP2; 40 µM on Human MMP9; > 100 µM on Human MMP1; 4 µM at Human MMP17. Further, the concentration for half-maximal inhibition (IC50) at Human MMP13 came out at 2 µM; at TACE, 0.063 µM.

By IC50 is commonly meant the concentration that inhibits the measured activity by half.
